Source: the supplement of paper PMC10307832

Experiments:
Test in all cases: relative viability (nuclei count vs DMSO), 5 days (fraction); higher = more cells survive
AT-7519 + Trametinib = compound: O=C(NC1CCNCC1)c1n[nH]cc1NC(=O)c1c(Cl)cccc1Cl [AT-7519] + CC(=O)Nc1cccc(-n2c(=O)n(C3CC3)c(=O)c3c(Nc4ccc(I)cc4F)n(C)c(=O)c(C)c32)c1 [Trametinib] (partner 0.02 µM)
Procedure, shortened: (§1)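 For relative viability, nuclei counts in treated wells were divided by those in vehicle wells. Lung cancer cell lines had been pin-tool dosed in 1536-well plates the day after seeding and cultured for 5 days, then fixed and stained in one step (final 0.05% Triton X-100, 1% formaldehyde, 1 ug/ml Hoechst) and imaged at 4×. Doses were one drug alone or a fixed anchor-drug dose plus five library-drug doses (not always all listed) in √10 steps, and values are duplicate-plate medians.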

[1] = compound: C1=CC2=C(C=C(C(=C2N=C1)O)N=NC3=CC4=C(C=C3)C=C(C=C4)S(=O)(=O)O)S(=O)(=O)O + C[C@]1(O)C[C@@H](c2nc(-c3ccc4ccc(-c5ccccc5)nc4c3)c3c(N)nccn32)C1 [Linsitinib] (partner 1 µM)
Procedure, shortened: as §1

[2] = compound: C1=CC2=C(C=C(C(=C2N=C1)O)N=NC3=CC4=C(C=C3)C=C(C=C4)S(=O)(=O)O)S(=O)(=O)O + CS(=O)(=O)CCNCc1ccc(-c2ccc3ncnc(Nc4ccc(OCc5cccc(F)c5)c(Cl)c4)c3c2)o1 [Lapatinib] (partner 2 µM)
Procedure, shortened: as §1

AT-7519 + Vorinostat = compound: O=C(NC1CCNCC1)c1n[nH]cc1NC(=O)c1c(Cl)cccc1Cl [AT-7519] + O=C(CCCCCCC(=O)Nc1ccccc1)NO [Vorinostat] (partner 1 µM)
Procedure, shortened: as §1

With UMC-11 the relative viability (AT-7519 + Trametinib; first compound 0.01 µM) was 0.593, the relative viability (AT-7519 + Trametinib; first compound 0.03162 µM) was 0.647 and the relative viability (AT-7519 + Trametinib; first compound 0.3162 µM) was 0.498. For the same cell line, the relative viability (AT-7519 + Trametinib; first compound 1 µM) was 0.384, the relative viability ([1]; first compound 0.08 µM) was 1.11 and the relative viability ([1]; first compound 0.253 µM) was 0.943. It also gave a relative viability ([1]; first compound 0.8 µM) of 1.03, a relative viability ([1]; first compound 2.53 µM) of 1.02 and a relative viability ([1]; first compound 8 µM) of 0.944. It also gave a relative viability ([2]; first compound 0.08 µM) of 1.07, a relative viability ([2]; first compound 0.253 µM) of 0.969 and a relative viability ([2]; first compound 0.8 µM) of 0.889. It also gave a relative viability ([2]; first compound 2.53 µM) of 1.02, a relative viability ([2]; first compound 8 µM) of 0.716 and a relative viability (AT-7519 + Vorinostat; first compound 0.01 µM) of 0.324. For the same cell line, the relative viability (AT-7519 + Vorinostat; first compound 0.03162 µM) was 0.379, the relative viability (AT-7519 + Vorinostat; first compound 0.3162 µM) was 0.272 and the relative viability (AT-7519 + Vorinostat; first compound 1 µM) was 0.205.
